According to PMC5218480 (PLoS ONE, 2017):

Tested on: MV-4-11 cells
Assay: Gene expression microarray analysis (Affymetrix PrimeView) and GSEA
Type: cell-based, human
Design: RFU PODN (11730768_x_at) / Fold change /veh PODN (11730768_x_at) / RFU LINC00158 (11744669_a_at) / Fold change /veh LINC00158 (11744669_a_at) / RFU DUSP10 (11751237_a_at) / Fold change /veh DUSP10 (11751237_a_at) / RFU ID3 (11757404_x_at) / Fold change /veh ID3 (11757404_x_at) / RFU PLEKHG5 (11737974_s_at) / Fold change /veh PLEKHG5 (11737974_s_at) / RFU LRRC4B (11730491_at) / Fold change /veh LRRC4B (11730491_at) / RFU GIMAP4 (11747438_a_at) / Fold change /veh GIMAP4 (11747438_a_at) / RFU KRT8 (11758183_x_at) / Fold change /veh KRT8 (11758183_x_at) / RFU CNN1 (11734310_a_at) / Fold change /veh CNN1 (11734310_a_at) / RFU VPS37D (11726825_at) / Fold change /veh VPS37D (11726825_at) / RFU C10orf10 (11716522_x_at) / Fold change /veh C10orf10 (11716522_x_at) / RFU KIR2DL2 /// KIR2DL4 /// KIR2DL5A /// KIR2DL5B /// KIR2DS1 /// KIR2DS2 /// KIR2DS3 /// KIR2DS4 /// KIR3DL3 /// KIR3DL3 /// KIR3DS1 (11738374_at) / Fold change /veh KIR2DL2 /// KIR2DL4 /// KIR2DL5A /// KIR2DL5B /// KIR2DS1 /// KIR2DS2 /// KIR2DS3 /// KIR2DS4 /// KIR3DL3 /// KIR3DL3 /// KIR3DS1 (11738374_at) / RFU C1QL1 (11718748_at) / Fold change /veh C1QL1 (11718748_at) / RFU TMPRSS4 (11747572_a_at) / Fold change /veh TMPRSS4 (11747572_a_at) / RFU HAMP (11756126_x_at) / Fold change /veh HAMP (11756126_x_at) / RFU RNFT2 (11725882_a_at) / Fold change /veh RNFT2 (11725882_a_at) / RFU NR4A2 (11747474_a_at) / Fold change /veh NR4A2 (11747474_a_at) / RFU ABCC12 (11746883_a_at) / Fold change /veh ABCC12 (11746883_a_at) / RFU TMEM136 (11760407_x_at) / Fold change /veh TMEM136 (11760407_x_at) / RFU CLDN22 /// WWC2 (11732394_at) / Fold change /veh CLDN22 /// WWC2 (11732394_at) / RFU HLA-DPB1 (11760878_x_at) / Fold change /veh HLA-DPB1 (11760878_x_at) / RFU SPINT1 (11716480_a_at) / Fold change /veh SPINT1 (11716480_a_at) / RFU GAP43 (11754022_s_at) / Fold change /veh GAP43 (11754022_s_at) / RFU A4GNT (11735810_at) / Fold change /veh A4GNT (11735810_at) / RFU PRB3 (11715151_x_at) / Fold change /veh PRB3 (11715151_x_at) / RFU TUBB4B (11761932_at) / Fold change /veh TUBB4B (11761932_at) / RFU CAPN14 (11732068_a_at) / Fold change /veh CAPN14 (11732068_a_at) / RFU TMCC2 (11721928_a_at) / Fold change /veh TMCC2 (11721928_a_at) / RFU IRGQ (11745062_a_at) / Fold change /veh IRGQ (11745062_a_at) / RFU FAM174B (11720279_a_at) / Fold change /veh FAM174B (11720279_a_at) / RFU TMPRSS4 (11748680_a_at) / Fold change /veh TMPRSS4 (11748680_a_at) / RFU FAM212B (11763350_a_at) / Fold change /veh FAM212B (11763350_a_at) / RFU PLEKHG5 (11743358_a_at) / Fold change /veh PLEKHG5 (11743358_a_at) / RFU ZSCAN30 (11745921_a_at) / Fold change /veh ZSCAN30 (11745921_a_at) / RFU CMKLR1 (11741424_a_at) / Fold change /veh CMKLR1 (11741424_a_at) / RFU LOC101060620 /// MAPK8IP1 (11723275_at) / Fold change /veh LOC101060620 /// MAPK8IP1 (11723275_at) / RFU SPTSSB (11747773_x_at) / Fold change /veh SPTSSB (11747773_x_at) / RFU PRSS12 (11739890_at) / Fold change /veh PRSS12 (11739890_at) / RFU BIN1 (11741810_x_at) / Fold change /veh BIN1 (11741810_x_at) / RFU WNT11 (11732464_a_at) / Fold change /veh WNT11 (11732464_a_at) / RFU C10orf10 (11716521_a_at) / Fold change /veh C10orf10 (11716521_a_at) / RFU C5orf56 (11738089_at) / Fold change /veh C5orf56 (11738089_at) / RFU CYB561 (11721691_x_at) / Fold change /veh CYB561 (11721691_x_at) / RFU ANKRD19P (11752326_a_at) / Fold change /veh ANKRD19P (11752326_a_at) / RFU OR2T12 /// OR2T33 /// OR2T8 (11738714_s_at) / Fold change /veh OR2T12 /// OR2T33 /// OR2T8 (11738714_s_at) / RFU VCAN (11748164_a_at) / Fold change /veh VCAN (11748164_a_at) / RFU JSRP1 (11732532_at) / Fold change /veh JSRP1 (11732532_at) / RFU KRTAP10-11 (11738290_x_at) / Fold change /veh KRTAP10-11 (11738290_x_at) / RFU MYO3A (11730013_a_at) / Fold change /veh MYO3A (11730013_a_at) / RFU EBF3 (11725865_a_at) / Fold change /veh EBF3 (11725865_a_at) / RFU CAMK2N1 (11719241_x_at) / Fold change /veh CAMK2N1 (11719241_x_at) / RFU C5orf56 (11738088_a_at) / Fold change /veh C5orf56 (11738088_a_at) / RFU OLFML3 (11715873_a_at) / Fold change /veh OLFML3 (11715873_a_at) / RFU LOC100653217 /// NTM (11731650_a_at) / Fold change /veh LOC100653217 /// NTM (11731650_a_at) / RFU MAPK11 (11762145_a_at) / Fold change /veh MAPK11 (11762145_a_at) / RFU FIZ1 (11724087_x_at) / Fold change /veh FIZ1 (11724087_x_at) / RFU OASL (11726364_x_at) / Fold change /veh OASL (11726364_x_at) / RFU SOX15 (11748057_x_at) / Fold change /veh SOX15 (11748057_x_at) / RFU CD79A (11719716_a_at) / Fold change /veh CD79A (11719716_a_at) / RFU HIST1H1D (11736915_at) / Fold change /veh HIST1H1D (11736915_at) / RFU CASKIN2 (11723855_a_at) / Fold change /veh CASKIN2 (11723855_a_at) / RFU LOC730098 (11760151_x_at) / Fold change /veh LOC730098 (11760151_x_at) / RFU OR4N2 (11742367_at) / Fold change /veh OR4N2 (11742367_at) / RFU PRRT2 (11749266_a_at) / Fold change /veh PRRT2 (11749266_a_at) / RFU SNX32 (11753110_a_at) / Fold change /veh SNX32 (11753110_a_at) / RFU CDHR5 (11726645_a_at) / Fold change /veh CDHR5 (11726645_a_at) / RFU RCAN1 (11760418_a_at) / Fold change /veh RCAN1 (11760418_a_at) / RFU FAM167A (11723789_a_at) / Fold change /veh FAM167A (11723789_a_at) / RFU FAM26E (11764081_at) / Fold change /veh FAM26E (11764081_at) / RFU ISYNA1 (11749810_s_at) / Fold change /veh ISYNA1 (11749810_s_at) / RFU ACY1 (11761880_at) / Fold change /veh ACY1 (11761880_at) / RFU 11764098_at / Fold change /veh 11764098_at / RFU SAMD14 (11745864_x_at) / Fold change /veh SAMD14 (11745864_x_at) / RFU NPB (11741838_a_at) / Fold change /veh NPB (11741838_a_at) / RFU TMPRSS6 (11731388_a_at) / Fold change /veh TMPRSS6 (11731388_a_at) / RFU KRTAP10-2 (11738614_at) / Fold change /veh KRTAP10-2 (11738614_at) / RFU ARHGAP8 /// PRR5-ARHGAP8 (11727945_x_at) / Fold change /veh ARHGAP8 /// PRR5-ARHGAP8 (11727945_x_at) / RFU KRTAP5-7 /// NADSYN1 (11734609_at) / Fold change /veh KRTAP5-7 /// NADSYN1 (11734609_at) / RFU RASL12 (11751679_a_at) / Fold change /veh RASL12 (11751679_a_at) / RFU CDKN2B (11736163_a_at) / Fold change /veh CDKN2B (11736163_a_at) / RFU PRF1 (11729649_at) / Fold change /veh PRF1 (11729649_at) / RFU, ZNF638 /// ZNF638-IT1 / Fold change vs veh, ZNF638 /// ZNF638-IT1 / RFU, PANK3 / Fold change vs veh, PANK3 / RFU, SH3YL1 / Fold change vs veh, SH3YL1 / RFU, ZEB2 / Fold change vs veh, ZEB2 / RFU, NRIP1 / Fold change vs veh, NRIP1 / RFU, PTTG1IP / Fold change vs veh, PTTG1IP / RFU, CAPN2 / Fold change vs veh, CAPN2 / RFU, MED14 / Fold change vs veh, MED14 / RFU, SNORA58 / Fold change vs veh, SNORA58 / RFU, C1orf63 / Fold change vs veh, C1orf63 / RFU, LRRFIP1 / Fold change vs veh, LRRFIP1 / RFU, NDUFAF7 / Fold change vs veh, NDUFAF7 / RFU, SLC12A2 / Fold change vs veh, SLC12A2 / RFU, IBTK / Fold change vs veh, IBTK / RFU, ESF1 / Fold change vs veh, ESF1 / Fold change vs veh, TMEM50B / RFU, TAOK1 / Fold change vs veh, TAOK1 / RFU, ACBD3 / Fold change vs veh, ACBD3 / RFU, TMA16 / Fold change vs veh, TMA16 / RFU, RWDD3 / Fold change vs veh, RWDD3 / RFU, BCAT1 / Fold change vs veh, BCAT1 / RFU, EDEM3 / Fold change vs veh, EDEM3 / RFU, TMEM33 / Fold change vs veh, TMEM33 / RFU, WDR75 / Fold change vs veh, WDR75 / RFU, AHCTF1 / Fold change vs veh, AHCTF1 / RFU, TFRC / Fold change vs veh, TFRC / RFU, ZDHHC17 / Fold change vs veh, ZDHHC17 / RFU, NOM1 / Fold change vs veh, NOM1 / RFU, ARL8B / Fold change vs veh, ARL8B / RFU, ZBTB11 / Fold change vs veh, ZBTB11 / RFU, TAMM41 / Fold change vs veh, TAMM41 / RFU, KIAA1704 /// LOC100996395 / Fold change vs veh, KIAA1704 /// LOC100996395 / RFU, ING1 / Fold change vs veh, ING1 / RFU, TRMT61B / Fold change vs veh, TRMT61B / RFU, FUBP3 / Fold change vs veh, FUBP3 / RFU, TP53 / Fold change vs veh, TP53 / RFU, TNKS2 / Fold change vs veh, TNKS2 / RFU, ZFP14 / Fold change vs veh, ZFP14 / RFU, ACTR2 / Fold change vs veh, ACTR2 / RFU, PPP3R1 / Fold change vs veh, PPP3R1 / RFU, PIK3R1 / Fold change vs veh, PIK3R1 / RFU, HNRNPA1 / Fold change vs veh, HNRNPA1 / RFU, RNF170 / Fold change vs veh, RNF170 / RFU, ZNF28 / Fold change vs veh, ZNF28 / RFU, RNGTT / Fold change vs veh, RNGTT / RFU, OGT / Fold change vs veh, OGT / RFU, BRD1 / Fold change vs veh, BRD1 / RFU, MARS / Fold change vs veh, MARS / RFU, ZNF655 / Fold change vs veh, ZNF655 / RFU, FAHD1 / Fold change vs veh, FAHD1 / RFU, BDP1 / Fold change vs veh, BDP1 / RFU, LRRCC1 / Fold change vs veh, LRRCC1 / RFU, ARID1A / Fold change vs veh, ARID1A / RFU, ZNF146 / Fold change vs veh, ZNF146 / RFU, ZNF330 / Fold change vs veh, ZNF330 / RFU, GPN3 / Fold change vs veh, GPN3 / RFU, C9orf123 / Fold change vs veh, C9orf123 / RFU, N4BP2L2 / Fold change vs veh, N4BP2L2 / RFU, ARFIP1 / Fold change vs veh, ARFIP1 / RFU, FAM179B / Fold change vs veh, FAM179B / RFU, BCL10 / Fold change vs veh, BCL10 / RFU, UHRF1BP1L / Fold change vs veh, UHRF1BP1L / RFU, BET1 / Fold change vs veh, BET1 / RFU, CNOT2 / Fold change vs veh, CNOT2 / RFU, ZNF268 / Fold change vs veh, ZNF268 / Fold change vs veh, ZNF507 / RFU, DGCR2 / Fold change vs veh, DGCR2 / RFU, WDSUB1 / Fold change vs veh, WDSUB1 / Fold change vs veh, HSP90B1 /// MIR3652 / RFU, ADSS / Fold change vs veh, ADSS / RFU, GK / Fold change vs veh, GK / RFU, ZNF148 / Fold change vs veh, ZNF148 / RFU, TAF9 / Fold change vs veh, TAF9 / RFU, SLC1A5 / Fold change vs veh, SLC1A5 / RFU, SLMO2 / Fold change vs veh, SLMO2 / RFU, ABCC4 / Fold change vs veh, ABCC4 / RFU, LOC101060439 /// RAP1B / Fold change vs veh, LOC101060439 /// RAP1B / RFU, RFX7 / Fold change vs veh, RFX7 / RFU, GTPBP10 / Fold change vs veh, GTPBP10 / RFU, CNEP1R1 / Fold change vs veh, CNEP1R1 / RFU, BIVM-ERCC5 /// ERCC5 / Fold change vs veh, BIVM-ERCC5 /// ERCC5 / RFU, ILF3 / Fold change vs veh, ILF3 / RFU 11762660_at / Fold change /veh 11762660_at / RFU VCAN (11757783_s_at) / Fold change /veh VCAN (11757783_s_at) / RFU DDX43 (11728927_at) / Fold change /veh DDX43 (11728927_at) / RFU KRT8 (11758188_x_at) / Fold change /veh KRT8 (11758188_x_at) / RFU NKD1 (11759106_at) / Fold change /veh NKD1 (11759106_at) / RFU SRD5A1 (11742802_a_at) / Fold change /veh SRD5A1 (11742802_a_at) / RFU TPSAB1 /// TPSB2 (11721975_s_at) / Fold change /veh TPSAB1 /// TPSB2 (11721975_s_at) / RFU GSTM3 (11746129_a_at) / Fold change /veh GSTM3 (11746129_a_at) / RFU IL23R (11737362_x_at) / Fold change /veh IL23R (11737362_x_at) / RFU TMEM51 (11727254_a_at) / Fold change /veh TMEM51 (11727254_a_at) / RFU PIWIL2 (11732686_x_at) / Fold change /veh PIWIL2 (11732686_x_at) / RFU ORM1 (11744905_x_at) / Fold change /veh ORM1 (11744905_x_at) / RFU CCDC152 (11743942_at) / Fold change /veh CCDC152 (11743942_at) / RFU ECM1 (11717891_a_at) / Fold change /veh ECM1 (11717891_a_at) / RFU IL23R (11748794_a_at) / Fold change /veh IL23R (11748794_a_at) / RFU TNFAIP8L3 (11732012_x_at) / Fold change /veh TNFAIP8L3 (11732012_x_at) / RFU MBOAT4 (11741988_at) / Fold change /veh MBOAT4 (11741988_at) / RFU 11764193_at / Fold change /veh 11764193_at / RFU TMEM53 (11763286_at) / Fold change /veh TMEM53 (11763286_at) / RFU MAGEB2 (11727129_at) / Fold change /veh MAGEB2 (11727129_at) / RFU TMEM200A (11744735_a_at) / Fold change /veh TMEM200A (11744735_a_at) / RFU CCDC152 (11751479_a_at) / Fold change /veh CCDC152 (11751479_a_at) / RFU FAM211A (11726209_a_at) / Fold change /veh FAM211A (11726209_a_at) / RFU RGS16 (11746705_a_at) / Fold change /veh RGS16 (11746705_a_at) / RFU VCAN (11755009_s_at) / Fold change /veh VCAN (11755009_s_at) / RFU RHOB (11743442_s_at) / Fold change /veh RHOB (11743442_s_at) / RFU RGS16 (11720943_a_at) / Fold change /veh RGS16 (11720943_a_at) / RFU RGS16 (11720944_at) / Fold change /veh RGS16 (11720944_at) / RFU, VPS4B / Fold change vs veh, VPS4B / RFU, CREB1 / Fold change vs veh, CREB1 / RFU, DNAJC13 / Fold change vs veh, DNAJC13 / RFU, GNAQ / Fold change vs veh, GNAQ / RFU, CDK5R1 / Fold change vs veh, CDK5R1 / RFU, ZRANB3 / Fold change vs veh, ZRANB3 / RFU, CUL4A / Fold change vs veh, CUL4A / RFU, CCNY / Fold change vs veh, CCNY / RFU, UFL1 / Fold change vs veh, UFL1 / RFU, COG3 / Fold change vs veh, COG3 / RFU, DIAPH2 / Fold change vs veh, DIAPH2 / RFU, SKA2 / Fold change vs veh, SKA2 / RFU, AFF3 / Fold change vs veh, AFF3 / RFU, LMF1 / Fold change vs veh, LMF1 / RFU, IPO11 / Fold change vs veh, IPO11 / RFU, DFFB / Fold change vs veh, DFFB / RFU, FOXP1 / Fold change vs veh, FOXP1 / RFU, CARD8 / Fold change vs veh, CARD8 / RFU, STRN3 / Fold change vs veh, STRN3 / RFU, ADK / Fold change vs veh, ADK / RFU, RASSF2 / Fold change vs veh, RASSF2 / RFU, WIPF1 / Fold change vs veh, WIPF1 / RFU, LARP1B / Fold change vs veh, LARP1B / RFU, RASA1 / Fold change vs veh, RASA1 / RFU, RB1 / Fold change vs veh, RB1 / RFU, PPFIA1 / Fold change vs veh, PPFIA1 / RFU, MAT2A / Fold change vs veh, MAT2A / RFU, CCT5 / Fold change vs veh, CCT5 / RFU, WDR92 / Fold change vs veh, WDR92 / RFU, CUX1 / Fold change vs veh, CUX1 / RFU, TTC7A / Fold change vs veh, TTC7A / RFU, TMEM135 / Fold change vs veh, TMEM135 / RFU, DEPTOR / Fold change vs veh, DEPTOR / RFU, CPM / Fold change vs veh, CPM / RFU, DNAJB6 / Fold change vs veh, DNAJB6 / RFU, CACNA2D3 / Fold change vs veh, CACNA2D3 / RFU, DTX4 / Fold change vs veh, DTX4 / RFU, TFCP2 / Fold change vs veh, TFCP2 / RFU, GMCL1 /// GMCL1P1 / Fold change vs veh, GMCL1 /// GMCL1P1 / RFU, AEBP2 / Fold change vs veh, AEBP2 / RFU, SNHG1 /// SNORD22 /// SNORD25 /// SNORD26 /// SNORD27 /// SNORD28 /// SNORD29 /// SNORD31 / Fold change vs veh, SNHG1 /// SNORD22 /// SNORD25 /// SNORD26 /// SNORD27 /// SNORD28 /// SNORD29 /// SNORD31 / Fold change (Aza/veh), C12orf56 (ProbeSet 11735607_a_at) / Fold change (ACY-1035/veh), C12orf56 (ProbeSet 11735607_a_at) / Fold change (Aza/veh), FGFR1OP (ProbeSet 11751329_s_at) / Fold change (ACY-1035/veh), FGFR1OP (ProbeSet 11751329_s_at) / Fold change (Aza/veh), VPS36 (ProbeSet 11739960_a_at) / Fold change (ACY-1035/veh), VPS36 (ProbeSet 11739960_a_at) / RFU SYPL1 (11715823_x_at) / Fold change /veh SYPL1 (11715823_x_at) / RFU IGFBP7 (11715501_s_at) / Fold change /veh IGFBP7 (11715501_s_at) / RFU REEP3 (11722064_at) / Fold change /veh REEP3 (11722064_at) / RFU IGLL1 (11728026_x_at) / Fold change /veh IGLL1 (11728026_x_at): dose or concentration left out as unconfirmed
Details: ProbeSet 11724877_a_at; LIST D

Nc1ccc(-c2cccs2)cc1NC(=O)c1ccc2c(c1)cc(C1CC1)n2CCN1CCOCC1 [ACY-1035]
RFU, AEBP2: 30.16 RFU
